For data set [1], the system named is RAW 264.7 cells. Briefly: RANKL-induced osteoclast formation by RAW 264.7 cells, TRAP staining. Type of data set: cell-based, mouse. As to conditions: for osteoclast differentiation (TRAP+ multinucleated osteoclasts): exposure 4 days. As to the method: RAW 264.7 mouse macrophage/monocytes (TIB-71) were purchased from ATCC (Manassas, Va.). Cells were cultured in DMEM/1.5 g/l sodium bicarbonate (JRH Biosciences, Lenexa, Kans.) plus 10% non-heat-inactivated FBS (Invitrogen Corporation Carlsbad, Calif.). When needed, 5-HT was stripped from the FBS by incubating it twice in 0.25% Dextran-coated charcoal (Sigma-Aldrich, St. Louis, Mo.) for 30 minutes at 45° C. Recombinant mouse soluble RANKL (Immunex Corp., Seattle, Wash.) was added at a concentration of 10 ng/ml. Recombinant murine RANKL is an NH2-terminal fusion of a leucine zipper trimerization domain (Fanslow et al., 1994, Semin. Immunol. 6(5):267-278) with residues 134-316 of murine RANKL. […] Cultures were also exposed to the VMAT inhibitor reserpine and the MAO-B inhibitor pargylline (Sigma-Aldrich, St. Louis, Mo.), at the indicated concentrations for 4 days. Mouse bone marrow cells were obtained from long bones of 2-week old C57B1 mice and cultured for 7 days in αMEM/FBS supplemented with 50 ng/ml RANKL and 50 ng/ml human M-CSF (PeproTech Inc., Rocky Hill, N.J.).
(§1) Cells were stained for tartrate-resistant acid phosphatase (TRAP) using a commercially available kit (#387-A, Sigma-Aldrich, St. Louis, Mo.), according to the manufacturer's directions.

The conditions of data set [2]: cited from earlier work.
The subject of data set [3] is cathepsin K, MMP-9, TRAP expression. Briefly: Northern blot analysis of osteoclast markers in RANKL-stimulated RAW 264.7 cells. It is filed as cell-based, mouse. More on the design: reduction in the expression of cathepsin K / reduction in the expression of MMP-9 / reduction in the expression of TRAP: dose or concentration left out as unconfirmed. As to the method:
Total RNA was extracted from cells using the TRIAZOL reagent (Invitrogen Corporation, Carlsbad, Calif.), according to the manufacturer's instructions. For RT-PCR, […] of RNA were reversed-transcribed to cDNA using SuperScript II (Invitrogen Corporation, Carlsbad, Calif.) following the manufacturer's instructions. One-tenth of the cDNA was used as a template for the polymerase chain reaction (PCR) […] (35 cycles at 94° C. for 1 minute, 58° C. for 1 minute and 72° C. for 1 minute). For Northern blot analysis, […] of RNA were size fractionated on a 1.2% agarose denaturing gel and transferred onto nylon membranes. The membranes were hybridized to ^32P radiolabeled probes overnight at 42° C. in hybridization solution (50% formamide, 5× SSC, 5× Denhardt's solution, 0.5% SDS and […] salmon sperm DNA), washed twice to remove unbound probe in 1× SSC, 0.2% SDS at 50° C. for 20 minutes, and exposed to X-ray film. The DNA probes were generated by reverse transcriptase polymerase chain reaction (RT-PCR) from OCL RNA, using the following primer-pairs: […]

Data set [4] concerns Swiss Webster mice. The data set is described as follows: Systemic fluoxetine, trabecular parameters in mice (Example 2). It is filed as in vivo. As to conditions: fluoxetine 10 mg/kg i.p. once a day for 6 weeks, vs non-treated mice. From the text:
After 6 weeks the animals were sacrificed and trabecular bones were examined.
The increased number, increased connectivity, and decreased space between the transversal structures (i.e. trabeculae) of “spongelike bone” is indicative of increased density and strength of trabecular bone.

For data set [5], the system named is Swiss Webster mice. Briefly: Femur bone mass by microcomputer tomography after fluoxetine (Example 6). Type of data set: in vivo. More on the design: Trabecular thickness: unit not given here. As to conditions: for Trabecular number / Trabecular spacing / Trabecular thickness / connectedness of trabeculae: hydrochloride.
Data set [6] has as its system Primary osteoblasts obtained from mouse calvaria. The data set is described as follows: Bone nodule formation in vitro, Von Kossa stain (Example 5). Type of data set: cell-based. As to conditions: two weeks in presence of Vitamin D, presence vs absence of fluoxetine. As to the method:
Primary osteoblasts obtained from mouse calvaria were cultured in vitro for two weeks. […] The cells were then fixed and stained with Von Kossa stain, which stains for calcium phosphate present in bone nodules. Bone nodules formed by osteoblasts in vitro have the same cellular and biochemical composition found in bone. The number of bone nodules were counted.

In data set [7] the test system is mice. The data set is described as follows: New bone formation in calvarium after LPS or PTH plus fluoxetine, Van Giesson stain (Example 3). It is filed as in vivo. Here is the method: LPS (50 μl at 5 μg/μl) or PTH was injected subcutaneously above the calvarial bone once on day one to stimulate the osteoclasts.
After five days, the mice were sacrificed. The calvarium was fixed, decalcified, and analyzed histologically for new bone formation. Van Giesson stain was used to distinguish old bone from new bone (new bone stains blue). […] The x-axis represents arbitrary units of new bone formation, where 0 represents no new bone and 3 represents high amount of new bone.

The test system of data set [8] is normal mouse bone marrow cells (BMC). The data set is described as follows: Osteoclast formation from normal mouse bone marrow cells with M-CSF and RANKL. It is filed as cell-based. As to conditions: TRAP staining. As to the method:
Mouse bone marrow cells were obtained from long bones of 2-week old C57B1 mice and cultured for 7 days in αMEM/FBS supplemented with 50 ng/ml RANKL and 50 ng/ml human M-CSF (PeproTech Inc., Rocky Hill, N.J.).
as §1

Where [9] appears, read: RANKL-stimulated RAW 264.7 cells.
Where [10] appears, read: femur, fluoxetine 10 mg/kg i.p. daily for six weeks, n = 6.
Where [11] appears, read: femur, fluoxetine 10 mg/kg i.p. daily for six weeks, n = 6, listed as Fluoxetine.
Where [12] appears, read: fluoxetine-treated vs untreated mice.
The mark [13] stands for this setting: added serotonin in 5-HT-depleted FBS, Days 3 and 4 after RANKL induction.

“Also recorded” adds a separate entry of the source.

As to `C#CCN(C)Cc1ccccc1` [pargylline], in data set [1] (presence of RANKL), the “osteoclast differentiation (TRAP+ multinucleated osteoclasts)” value is reported as “had no effect”.
On to `COC(=O)[C@H]1[C@H]2C[C@@H]3c4[nH]c5cc(OC)ccc5c4CCN3C[C@H]2C[C@@H](OC(=O)c2cc(OC)c(OC)c(OC)c2)[C@@H]1OC` [reserpine], for which, in data set [1] (absence of RANKL), the “TRAP expression by mono- and bi-nucleated cells” value is “induced TRAP expression”; the “formation of large multinucleated osteoclasts” value was “not formed”. Besides, the “osteoclast differentiation (TRAP+ multinucleated osteoclasts)” value in data set [1] (presence of RANKL) is “promoted osteoclast differentiation”. Also, the “cell size and multinucleation” value in data set [1] (presence of RANKL, reserpine treatment) was “stimulated the formation of much larger cells with greater multinucleation”.
For orientation: half-life means how long it takes for the measured level to halve. As to `CNCCC(Oc1ccc(C(F)(F)F)cc1)c1ccccc1.Cl` (racemic) [fluoxetine, (+/−)—N-methyl-3-phenyl-3-[(α,α,α-trifluoro-p-tolyl)oxy]propylamine hydrochloride], the half-life in data set [2] (stated with the dosage range for treating depression) was 170 to 220 h. Besides, the ½ life in data set [2] (stated with the mouse i.p. regimen of Example 2) is 1 to 2 days. In data set [3] (setting [9]), the “reduction in the expression of MMP-9” value was 80%, the “reduction in the expression of TRAP” value is about 20% and the “reduction in the expression of cathepsin K” value is listed as about 70%. For the same compound, in data set [4], the Trabecular spacing result is reported as “decreased”, the “number of trabeculae per unit length of bone” value is on record as “increased” and the thickness of trabeculae result is “no significant difference”. Moreover, in data set [4] (hydrochloride), the “bone mineral content (BMC)” value is reported as “increase” and the connectedness of trabeculae entry is “more connected; also recorded: increase”. Further, in data set [5] (setting [10]), the Bone surface was 16.9 ± 7.3 mm^2, the Trabecular number result is recorded as “significant increases”, the Trabecular spacing entry is “reduction” and the Trabecular thickness result was “stable”. Moreover, in data set [5] (setting [10]), the connectedness of trabeculae result was “better connected”. This compound also gave a Bone volume/total volume in data set [5] (femur, fluoxetine 10 mg/kg i.p. daily for six weeks, n = 6, in % (unit assumed)) of 16.7 ± 7.3. Besides, in data set [5] (setting [11]), the Trabecular number was 3.26 ± 0.53, the Trabecular spacing is recorded as 0.32 ± 0.05, the Trabecular thickness was 0.09 ± 0.01 and the connectedness of trabeculae was 114.2 ± 53.0. Also, in data set [5] (setting [12]), the “increase in bone mineral content” value is reported as 50%, the “increase in bone surface” value amounted to 50% and the “increase in bone volume/total volume” value is given as 50%. Further, the “formation of TRAP positive cells” value in data set [1] (RANKL-induced RAW 264.7 cells, fluoxetine concentration series) was “inhibited the formation of TRAP positive cells in a dose-dependent manner”. The “osteoclast differentiation (TRAP positive multinucleated cells)” value in data set [1] (RANKL-induced, 5-HT replete (FBS) and depleted (FBS−) serum) is given as “suppressed osteoclast differentiation”. Moreover, the “number of bone nodules” value in data set [6] is on record as “increased”. The new bone formation result in data set [7] (LPS injected above calvarial bone on day one, fluoxetine 10 mg/kg i.p. once a day for five days, vs LPS alone, hydrochloride) is listed as “increased new bone formation; also recorded: greater increase in new bone”. Further, the new bone formation entry in data set [7] (co-administration of fluoxetine and PTH, vs PTH alone) is recorded as “greater increase in new bone”. The BMC-derived osteoclast formation entry in data set [8] is “significantly inhibited”.
For `NCCc1c[nH]c2ccc(O)cc12` [serotonin, 5-hydroxytryptamine], in data set [3] (setting [13]), the MMP-9 expression result was “up-regulated” and the “cathepsin K expression” value is reported as “up-regulated”. For the same compound, the number of osteoclasts result in data set [1] (added serotonin at 30 or 300 ng/ml, 5-HT depleted FBS, RANKL-stimulated) is reported as “significantly increased”. The osteoclast formation entry in data set [1] (addition of serotonin 3-300 ng/ml, cultures containing FBS (5-HT replete)) is on record as “had no effect”.

These data come from patent US7326733B2, “Methods for increasing bone density” (The Forsyth Institute, priority 2003, dated 2008).
